Source: paper PMC4639830, “Inhibition of DYRK1A and GSK3B induces human β-cell proliferation” (Nature Communications, 2015)

Columns and labels:
IGF1R = biological target: T1, IGF1R (Homo sapiens, UniProt P08069); test: Kinase profiling; format: biochemical; details: Conc 1000 nM; read-out: Percent inhibition, IGF1R
T1 construct: purchased Ambit KINOMEscan
Source text: (§1) ; Fig. 5a; Supplementary Table 1). We focused on Dyrk1a because other kinases inhibited by aminopyrazine compounds were not highly expressed in β-cells and because Dyrk1a was known to inhibit the NFAT pathway that was previously implicated in β-cell proliferation. We used molecular modelling to dock the aminopyrazine compounds into the published structure of Dyrk1a (protein databank accession code 2vx3.pdb; Fig. 5b).

MET = biological target: T2, MET (Homo sapiens, UniProt P08581); test: Kinase profiling; format: biochemical; details: Conc 1000 nM; read-out: Percent inhibition, MET
T2 construct: purchased Ambit (KINOMEscan)
Source text: as §1

KDR (VEGFR2, FLK1) = biological target: T3, KDR (VEGFR2, FLK1) (Homo sapiens, UniProt P35968); test: Kinase profiling; format: biochemical; details: read-out: Percent inhibition, KDR (VEGFR2, FLK1); for inhibition at 1 µM: Conc 1000 nM
T3 construct: purchased Ambit KINOMEscan
Source text: as §1

BMX = biological target: T4, BMX (Homo sapiens, UniProt P51813); test: Kinase profiling; format: biochemical; details: Conc 1000 nM; read-out: Percent inhibition, BMX
T4 construct: purchased Ambit KINOMEscan
Source text: as §1

Abl = biological target: T5, Abl (Homo sapiens, UniProt P00519); test: Kinase profiling; format: biochemical; details: Conc 1000 nM; read-out: Percent inhibition, Abl
T5 construct: purchased Ambit KINOMEscan
Source text: as §1

ZAP70 = biological target: T6, ZAP70 (Homo sapiens, UniProt P43403); test: Kinase profiling; format: biochemical; details: read-out: Percent inhibition, ZAP70; for inhibition at 1 µM: Conc 1000 nM
T6 construct: purchased Ambit (KINOMEscan)
T6 sequence (P43403 1-619): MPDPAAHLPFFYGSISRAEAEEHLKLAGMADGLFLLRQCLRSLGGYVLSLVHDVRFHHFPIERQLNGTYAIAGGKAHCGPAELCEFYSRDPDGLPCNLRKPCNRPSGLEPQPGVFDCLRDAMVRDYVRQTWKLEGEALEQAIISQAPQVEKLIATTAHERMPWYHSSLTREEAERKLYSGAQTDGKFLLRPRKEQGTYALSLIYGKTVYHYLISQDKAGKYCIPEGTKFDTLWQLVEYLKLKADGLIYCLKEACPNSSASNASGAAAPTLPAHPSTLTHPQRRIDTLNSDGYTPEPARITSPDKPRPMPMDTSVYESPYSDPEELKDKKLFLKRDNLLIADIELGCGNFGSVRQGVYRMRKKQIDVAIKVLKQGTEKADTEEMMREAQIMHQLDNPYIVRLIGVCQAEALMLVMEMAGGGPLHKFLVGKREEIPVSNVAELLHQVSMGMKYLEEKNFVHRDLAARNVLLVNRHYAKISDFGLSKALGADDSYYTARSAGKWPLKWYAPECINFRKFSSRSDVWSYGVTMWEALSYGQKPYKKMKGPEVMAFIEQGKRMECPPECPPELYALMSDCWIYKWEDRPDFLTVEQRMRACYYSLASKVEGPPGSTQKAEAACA
Source text: as §1

JAK2 = biological target: T7, JAK2 (Homo sapiens, UniProt O60674); test: Kinase profiling; format: biochemical; details: read-out: Percent inhibition, JAK2; for inhibition at 1 µM: Conc 1000 nM
T7 construct: purchased Ambit KINOMEscan
Source text: as §1

bRAF = biological target: T8, bRAF (Homo sapiens, UniProt P15056); test: Kinase profiling; format: biochemical; details: Conc 1000 nM; read-out: Percent inhibition, bRAF
T8 construct: purchased Ambit KINOMEscan
Source text: as §1

SGK1 = biological target: T9, SGK1 (Homo sapiens, UniProt O00141); test: Kinase profiling; format: biochemical; details: Conc 1000 nM; read-out: Percent inhibition, SGK1
T9 construct: purchased Ambit (KINOMEscan)
Source text: as §1

LCK = biological target: T10, LCK (Homo sapiens, UniProt P06239); test: Kinase profiling; format: biochemical; details: Conc 1000 nM; read-out: Percent inhibition, LCK
T10 construct: purchased Ambit (KINOMEscan)
Source text: as §1

PIM-2 = biological target: T11, PIM-2 (Homo sapiens, UniProt Q9P1W9); test: Kinase profiling; format: biochemical; details: Conc 1000 nM; read-out: Percent inhibition, PIM-2
T11 construct: purchased Ambit (KINOMEscan)
Source text: as §1

TYRO3 = biological target: T12, TYRO3 (Homo sapiens, UniProt Q06418); test: Kinase profiling; format: biochemical; details: Conc 1000 nM; read-out: Percent inhibition, TYRO3
T12 construct: purchased Ambit (KINOMEscan)
Source text: as §1

MEK1 = biological target: T13, MEK1 (Homo sapiens, UniProt Q02750); test: Kinase profiling; format: biochemical; details: Conc 1000 nM; read-out: Percent inhibition, MEK1
T13 construct: purchased Ambit (KINOMEscan)
Source text: as §1

PKCalpha = biological target: T14, PKCalpha (Homo sapiens, UniProt P17252); test: Kinase profiling; format: biochemical; details: read-out: Percent inhibition, PKCalpha; for inhibition at 1 µM: Conc 1000 nM
T14 construct: purchased Ambit (KINOMEscan)
Source text: as §1

ALK = biological target: T15, ALK (Homo sapiens, UniProt Q9UM73); test: Kinase profiling; format: biochemical; details: read-out: Percent inhibition, ALK; for inhibition at 1 µM: Conc 1000 nM
T15 construct: purchased Ambit KINOMEscan
Source text: as §1

CDK2/cyclinA = biological target: T16, CDK2/cyclinA (Homo sapiens, UniProt P24941); test: Kinase profiling; format: biochemical; details: read-out: Percent inhibition, CDK2/cyclinA; for inhibition at 1 µM: Conc 1000 nM
T16 construct: purchased Ambit KINOMEscan
Source text: as §1

cRAF = biological target: T17, cRAF (Homo sapiens, UniProt P04049); test: Kinase profiling; format: biochemical; details: Conc 1000 nM; read-out: Percent inhibition, cRAF
T17 construct: purchased Ambit KINOMEscan
Source text: as §1

[1] = test system: reversibly immortalized mouse beta (R7T1) cells; test: R7T1 proliferation assay (CellTiter Glo); format: cell-based; details: growth-arrested R7T1 cells
Experimental: Reversibly immortalized mouse β-cells (R7T1)[49] express SV40 T antigen under a tetracycline inducible promoter. R7T1 cells were expanded in the presence of doxycycline. For experiments on proliferation, R7T1 cells were growth arrested by removal of doxycycline for 2 days and plated into 384-well plates at a density of 3,000 cells per well in growth medium. β-Cell proliferation was assessed using CellTiter Glo (Promega) after 4 days. Fold increase in cell number was calculated by normalizing compound-treated wells to the median of DMSO-treated wells.

human islets = test: Human islets treated 7 days: DNA, ATP, IEQ, insulin content, GSIS; format: cell-based; details: for DNA and ATP content and islet equivalent units (IEQ) compared with vehicle / insulin secretory capacity (GSIS): 6.7 μM GNF7156 or 2 μM GNF4877
Experimental: Human islets were evaluated for glucose stimulated insulin secretion using standard methods. Secreted insulin was monitored using an ELISA (Meso-scale Devices) and normalized to total DNA (PicoGreen, Invitrogen).
Rat or human β-cell proliferation assays were performed using dissociated primary rat or human islets. Islets were treated with the indicated compounds in the presence of EdU for 4 days before fixing and staining. EdU incorporation was measured by click reaction with AlexaFluor-647-azide (Invitrogen). For intact islet assays, primary human islets were treated for 7 or 8 days (as indicated in the legend). Rat dissociated islets were cultured in RPMI medium containing 10% FBS and human dissociated islets were cultured in PIM-S media (Prodo laboratories) with 10% human […].

T3 sequence (P35968 20-1356): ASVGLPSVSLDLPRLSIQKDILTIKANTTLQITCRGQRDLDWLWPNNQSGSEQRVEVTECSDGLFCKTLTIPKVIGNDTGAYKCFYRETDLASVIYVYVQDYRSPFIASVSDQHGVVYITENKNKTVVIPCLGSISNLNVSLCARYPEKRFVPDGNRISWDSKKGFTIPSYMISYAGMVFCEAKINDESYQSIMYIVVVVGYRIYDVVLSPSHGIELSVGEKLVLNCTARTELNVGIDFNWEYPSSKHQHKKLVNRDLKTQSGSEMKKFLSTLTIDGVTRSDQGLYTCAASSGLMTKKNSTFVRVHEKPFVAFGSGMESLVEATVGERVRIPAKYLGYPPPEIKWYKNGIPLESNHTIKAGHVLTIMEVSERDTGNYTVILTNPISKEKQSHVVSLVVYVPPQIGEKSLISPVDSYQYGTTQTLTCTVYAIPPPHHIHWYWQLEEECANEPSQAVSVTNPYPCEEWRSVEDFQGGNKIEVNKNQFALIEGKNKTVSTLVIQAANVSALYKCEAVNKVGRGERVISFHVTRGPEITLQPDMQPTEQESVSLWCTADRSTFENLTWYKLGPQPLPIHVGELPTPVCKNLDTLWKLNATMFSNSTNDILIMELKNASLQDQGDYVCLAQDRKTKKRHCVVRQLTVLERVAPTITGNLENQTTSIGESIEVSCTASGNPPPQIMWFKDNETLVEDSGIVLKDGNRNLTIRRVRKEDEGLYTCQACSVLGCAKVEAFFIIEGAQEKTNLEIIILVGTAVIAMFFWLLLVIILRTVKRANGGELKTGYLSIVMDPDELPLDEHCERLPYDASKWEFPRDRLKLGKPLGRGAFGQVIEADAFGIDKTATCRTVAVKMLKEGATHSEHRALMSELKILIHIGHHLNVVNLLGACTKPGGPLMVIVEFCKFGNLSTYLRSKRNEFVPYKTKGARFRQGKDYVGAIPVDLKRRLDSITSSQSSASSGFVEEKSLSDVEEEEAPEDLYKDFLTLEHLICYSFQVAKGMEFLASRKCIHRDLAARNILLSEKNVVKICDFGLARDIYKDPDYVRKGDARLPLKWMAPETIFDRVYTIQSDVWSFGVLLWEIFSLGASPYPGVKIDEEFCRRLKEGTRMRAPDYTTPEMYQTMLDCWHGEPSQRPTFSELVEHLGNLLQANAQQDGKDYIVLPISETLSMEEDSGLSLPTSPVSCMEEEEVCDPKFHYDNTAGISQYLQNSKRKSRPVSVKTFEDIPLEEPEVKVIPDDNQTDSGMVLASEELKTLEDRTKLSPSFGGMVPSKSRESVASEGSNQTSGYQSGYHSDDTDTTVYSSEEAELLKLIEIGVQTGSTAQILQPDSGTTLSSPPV
T15 sequence (Q9UM73 19-1620): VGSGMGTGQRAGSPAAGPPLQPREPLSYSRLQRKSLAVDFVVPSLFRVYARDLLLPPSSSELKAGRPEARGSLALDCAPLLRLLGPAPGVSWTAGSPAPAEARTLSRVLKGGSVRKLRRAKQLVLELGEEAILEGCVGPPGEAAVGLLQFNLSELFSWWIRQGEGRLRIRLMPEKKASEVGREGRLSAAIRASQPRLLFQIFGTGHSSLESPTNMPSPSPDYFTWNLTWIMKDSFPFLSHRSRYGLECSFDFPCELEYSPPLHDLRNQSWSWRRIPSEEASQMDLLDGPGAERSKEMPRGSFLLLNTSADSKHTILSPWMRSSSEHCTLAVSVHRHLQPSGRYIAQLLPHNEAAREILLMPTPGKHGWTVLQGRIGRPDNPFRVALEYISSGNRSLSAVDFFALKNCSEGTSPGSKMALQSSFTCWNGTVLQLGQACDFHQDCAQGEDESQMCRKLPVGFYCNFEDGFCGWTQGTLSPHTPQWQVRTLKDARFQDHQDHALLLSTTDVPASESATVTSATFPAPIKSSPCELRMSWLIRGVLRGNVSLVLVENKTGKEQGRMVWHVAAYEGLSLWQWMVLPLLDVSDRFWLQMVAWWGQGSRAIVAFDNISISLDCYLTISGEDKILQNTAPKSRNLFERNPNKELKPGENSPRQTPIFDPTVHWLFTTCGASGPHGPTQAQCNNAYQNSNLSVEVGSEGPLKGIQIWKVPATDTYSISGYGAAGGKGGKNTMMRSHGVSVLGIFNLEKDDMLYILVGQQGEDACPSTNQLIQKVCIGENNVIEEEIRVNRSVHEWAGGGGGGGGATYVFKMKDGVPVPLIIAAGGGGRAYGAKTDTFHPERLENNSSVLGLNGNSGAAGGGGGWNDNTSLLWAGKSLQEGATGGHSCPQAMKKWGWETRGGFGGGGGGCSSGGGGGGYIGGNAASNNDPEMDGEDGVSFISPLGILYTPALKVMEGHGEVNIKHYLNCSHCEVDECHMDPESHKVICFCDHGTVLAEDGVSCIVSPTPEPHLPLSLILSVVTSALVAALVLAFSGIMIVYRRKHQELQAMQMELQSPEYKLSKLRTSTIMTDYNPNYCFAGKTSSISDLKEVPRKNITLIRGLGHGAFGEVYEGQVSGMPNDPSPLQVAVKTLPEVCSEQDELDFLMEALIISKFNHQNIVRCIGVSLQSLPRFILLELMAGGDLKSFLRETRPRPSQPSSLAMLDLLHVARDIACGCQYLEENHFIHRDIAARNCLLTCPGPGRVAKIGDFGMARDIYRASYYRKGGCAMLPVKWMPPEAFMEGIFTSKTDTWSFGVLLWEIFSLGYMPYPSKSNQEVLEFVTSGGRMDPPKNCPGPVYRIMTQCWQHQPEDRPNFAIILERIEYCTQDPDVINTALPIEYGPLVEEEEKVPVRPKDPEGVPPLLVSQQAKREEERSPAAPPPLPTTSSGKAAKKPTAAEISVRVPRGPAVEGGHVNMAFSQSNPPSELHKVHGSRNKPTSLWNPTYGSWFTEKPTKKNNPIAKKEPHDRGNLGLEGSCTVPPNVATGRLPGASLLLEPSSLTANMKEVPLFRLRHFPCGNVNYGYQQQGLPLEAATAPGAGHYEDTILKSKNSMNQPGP
T7 sequence (O60674 whole entry): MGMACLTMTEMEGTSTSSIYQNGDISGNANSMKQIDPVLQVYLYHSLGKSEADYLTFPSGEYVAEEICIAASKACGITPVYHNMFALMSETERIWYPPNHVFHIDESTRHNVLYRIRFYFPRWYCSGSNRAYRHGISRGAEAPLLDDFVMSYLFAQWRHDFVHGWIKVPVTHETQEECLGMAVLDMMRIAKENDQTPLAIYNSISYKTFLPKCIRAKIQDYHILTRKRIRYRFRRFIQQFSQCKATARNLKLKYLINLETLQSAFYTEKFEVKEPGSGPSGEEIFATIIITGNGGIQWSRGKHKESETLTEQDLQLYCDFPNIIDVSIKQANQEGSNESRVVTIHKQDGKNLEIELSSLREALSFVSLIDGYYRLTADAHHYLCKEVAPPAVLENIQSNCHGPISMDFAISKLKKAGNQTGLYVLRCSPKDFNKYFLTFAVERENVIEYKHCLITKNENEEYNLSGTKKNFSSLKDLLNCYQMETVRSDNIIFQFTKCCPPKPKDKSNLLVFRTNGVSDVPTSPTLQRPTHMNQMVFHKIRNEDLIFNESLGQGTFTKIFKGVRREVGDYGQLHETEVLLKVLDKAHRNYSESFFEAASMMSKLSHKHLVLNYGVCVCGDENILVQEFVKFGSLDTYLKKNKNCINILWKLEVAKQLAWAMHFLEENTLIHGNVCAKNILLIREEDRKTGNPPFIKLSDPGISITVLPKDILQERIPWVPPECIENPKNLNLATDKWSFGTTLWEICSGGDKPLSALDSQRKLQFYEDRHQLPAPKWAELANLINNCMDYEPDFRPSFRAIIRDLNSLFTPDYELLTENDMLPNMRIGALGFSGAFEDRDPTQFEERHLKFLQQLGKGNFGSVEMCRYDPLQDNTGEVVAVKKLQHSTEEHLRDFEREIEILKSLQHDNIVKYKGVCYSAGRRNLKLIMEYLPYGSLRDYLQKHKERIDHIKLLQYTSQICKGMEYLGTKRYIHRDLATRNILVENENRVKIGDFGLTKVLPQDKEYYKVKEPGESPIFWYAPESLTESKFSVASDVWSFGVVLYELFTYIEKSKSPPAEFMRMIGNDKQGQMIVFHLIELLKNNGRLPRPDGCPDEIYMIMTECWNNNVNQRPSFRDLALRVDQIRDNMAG
T11 sequence (Q9P1W9 whole entry): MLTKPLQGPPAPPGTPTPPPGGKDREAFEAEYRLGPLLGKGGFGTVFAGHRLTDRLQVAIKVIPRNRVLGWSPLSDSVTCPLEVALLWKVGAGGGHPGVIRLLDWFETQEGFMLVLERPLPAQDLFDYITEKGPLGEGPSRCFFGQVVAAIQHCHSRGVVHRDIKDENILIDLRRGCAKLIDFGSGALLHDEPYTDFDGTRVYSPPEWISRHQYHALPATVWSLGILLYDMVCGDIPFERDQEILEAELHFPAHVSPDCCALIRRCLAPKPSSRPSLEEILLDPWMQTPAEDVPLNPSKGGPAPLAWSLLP

SMILES	inhibition at 1 µM (IGF1R) [%]	inhibition at 1 µM (MET) [%]	inhibition at 1 µM (KDR (VEGFR2, FLK1)) [%]	inhibition at 1 µM (BMX) [%]	inhibition at 1 µM (Abl) [%]	inhibition at 1 µM (ZAP70) [%]	inhibition at 1 µM (JAK2) [%]	inhibition at 1 µM (bRAF) [%]	inhibition at 1 µM (SGK1) [%]	inhibition at 1 µM (LCK) [%]	inhibition at 1 µM (PIM-2) [%]	inhibition at 1 µM (TYRO3) [%]	inhibition at 1 µM (MEK1) [%]	inhibition at 1 µM (PKCalpha) [%]	inhibition at 1 µM (ALK) [%]	inhibition at 1 µM (CDK2/cyclinA) [%]	inhibition at 1 µM (cRAF) [%]	EC50 [1] [nM]	DNA and ATP content and islet equivalent units (IEQ) compared with vehicle (human islets)	insulin secretory capacity (GSIS) (human islets)	also measured
CC(C)Oc1ccc(F)c(-c2cnc(N)c(C(=O)Nc3cnccc3N3CCC[C@@H](C(=O)O)C3)n2)c1 [GNF4877]	49	63	101	43	66	94	95	20	67	43	31	46	17	97	96	95	18	660	increases in DNA and ATP content and an increase in islet equivalent units	maintained insulin secretory capacity	inhibition at 0.2 µM (KDR (VEGFR2, FLK1); Conc 200 nM): 6%; inhibition at 0.2 µM (ZAP70; Conc 200 nM): 0%; inhibition at 0.2 µM (JAK2; Conc 200 nM): 2%; inhibition at 0.2 µM (PKCalpha; Conc 200 nM): 0%; inhibition at 0.2 µM (ALK; Conc 200 nM): 35%; inhibition at 0.2 µM (CDK2/cyclinA; Conc 200 nM): 67%
Nc1ncc(-c2ccccc2)nc1C(=O)Nc1cnccc1N1CCC(C(=O)O)CC1 [GNF7156]	19	47	102	88	90	70	92	46	39	31	60	52	50	96	71	90	17	2200	increases in DNA and ATP content and an increase in islet equivalent units	maintained insulin secretory capacity	insulin content of treated human islets (human islets; 6.7 μM GNF7156): slightly reduced insulin content
